# Experiments:
# MDA-MB-231 cells = test: EdU assay; assay type: cell-based, human; details: MDA-MB-231, 2 µM, 24 h
# Protocol: The EdU assay is performed by BeyoClick EdU kit. MDA‐MB‐231 cells were cultured in a 6‐well plate overnight. […] Following labeling, cells are fixed with 4% PFA for 15 min, washed three times with wash buffer, and permeabilized using 0.3% Triton X‐100 for 15 min. After another wash, endogenous peroxidases are blocked for 20 min. For detection, a click reaction mix (containing Biotin Azide, CuSO4, and click additive) is added and incubated for 30 min. After washing, streptavidin–HRP is applied and reacted for 30 min, followed by 5 min DAB substrate incubation. Finally, cells are washed, optionally counterstained, and imaged under a microscope.
# B16F10 syngeneic model = test: B16F10 syngeneic model; assay type: in vivo; details: C57BL/6J mice, HDAC inhibitors by oral gavage, anti-PD-L1 intraperitoneal, 7-day treatment
# Protocol: With the approval of the ethics committee of Shandong University, C57BL/6J mice were purchased from Charles River and fed in SPF conditions at the Model Animal Research Centre of Shandong University. To establish the B16F10 syngeneic model, cells in logarithmic growth phase were trypsinized with 0.25% trypsin, resuspended in sterile PBS, and adjusted to 1 × 10^6 cells/100 µL. The cell suspension (100 µL) was subcutaneously injected into the left axilla. When tumors reached to certain volume, mice were randomized (n = 5/group) and treated with Chidamide, LBH‐589, or SDFZ‐8 by oral gavage and intraperitoneal injection of anti‐PD‐L1. Tumor growth curves were plotted over a 7‐day treatment cycle. All procedures complied with AAALAC International guidelines for humane endpoint criteria.
structure (smiles),measurement,setting,value
O=C(CCCCCCNC(=O)c1cc(OCCc2ccccc2)c2ccccc2n1)NO [SDFZ-8],EdU positive cells,MDA-MB-231 cells,decreased
same,TGI,B16F10 syngeneic model,75%

# Reference: article PMC12627232 (MedComm, 2025)
